Key:
[1] = Hydrolysis of NBPT adduct-containing compositions at varying pH (OPPTS 835.2120), LC-MS monitoring; format: physicochemical; details: pH=4, 50° C.
Protocol: NBPT adduct-containing compositions were prepared by a method similar to that described in Example 1, with the exception that acetonitrile, rather than N-methylpyrrolidone was used as the solvent and, after <20 wt. % of free NBPT remained (based on UPLC testing), the acetonitrile was evaporated. As such, the NBPT in the “adduct-containing composition” subjected to hydrolysis according to the method of Example 2 is initially partially in adduct form and partially in free form (i.e., the composition includes both NBPT-containing adduct and free NBPT).
The NBPT adduct-containing compositions were hydrolyzed in accordance with OPPTS 835.2120 guidelines (https://www.regulations.gov/document?D=EPA-HQ-OPPT-2009-0152-0009), which are incorporated herein by reference. Specifically, samples comprising the NBPT adducts were subjected to various pH conditions (pH=4, pH=7, and pH=9) to evaluate the hydrolysis profiles at these varying pH values at 50° C. for 5 days. Hydrolysis of the NBPT adduct-containing compositions (by evaluating total NBPT adduct concentration as well as free NBPT concentration (i.e., NBPT in non-adduct form)) was monitored at hourly-to-daily intervals by liquid chromatography-mass spectroscopy (LC-MS), with secondary detection via ultraviolet (UV) detection at 200 nm. […]

[2] = NBPT hydrolysis over time in acetonitrile; format: physicochemical; details: in acetonitrile (no hydrolysis conditions)
Excerpt: FIGS. 4A and 4B present data on a study of NBPT hydrolysis over time in acetonitrile. As shown, little change is observed over the course of the study.

CCCCNP(N)(N)=S [free NBPT, N-(n-butyl) thiophosphoric triamide]
amount of free NBPT in the composition ([1]; day 3): minimal | amount of free NBPT in the composition ([1]; day 4): completely gone | change of overall amount over the course of the study [2]: not actively degraded

Source: patent publication US20190382320A1, “ENHANCED STABILITY OF UREASE INHIBITOR-CONTAINING COMPOSITIONS” (Koch Agronomic Services, LLC, priority 2017, published 2019)
